Experimental data from ChEMBL document CHEMBL3046161, “Synthesis of potential antitubercular and antimicrobial s-triazine-based scaffolds via Suzuki cross-coupling reaction” (2013).
Converted amounts (≈) assume the structure as drawn.

Assays:
Assay type in all cases: functional
Staphylococcus aureus [1] = assay: Antibacterial activity against Staphylococcus aureus MTCC 96 assessed as growth inhibition at 3.12 to 50 ug/mL after 24 hr by agar disk diffusion method
[2] = test system: Mycobacterium tuberculosis; assay: Antimycobacterial activity against Mycobacterium tuberculosis H37Rv assessed as growth inhibition after 12 to 28 days by Lowenstein and Jensen agar dilution method
Aspergillus niger [3] = assay: Antifungal activity against Aspergillus niger MTCC 282 assessed as growth inhibition at 3.12 to 50 ug/mL after 24 hr by agar disk diffusion method
Bacillus cereus [4] = assay: Antibacterial activity against Bacillus cereus MTCC 430 assessed as growth inhibition after 24 hr by agar streak dilution method; settings: MTCC 430, 24 h
Aspergillus clavatus [5] = assay: Antifungal activity against Aspergillus clavatus MTCC 1323 assessed as growth inhibition after 48 hr by agar streak dilution method; settings: MTCC 1323, 48 h
Bacillus cereus [6] = assay: Antibacterial activity against Bacillus cereus MTCC 430 assessed as growth inhibition at 3.12 to 50 ug/mL after 24 hr by agar disk diffusion method
Escherichia coli [7] = assay: Antibacterial activity against Escherichia coli MTCC 739 assessed as growth inhibition at 3.12 to 50 ug/mL after 24 hr by agar disk diffusion method
[8] = test system: Mycobacterium tuberculosis; assay: Antimycobacterial activity against Mycobacterium tuberculosis H37Rv assessed as growth inhibition at MIC after 12 to 28 days by Lowenstein and Jensen agar dilution method
Salmonella typhi [9] = assay: Antibacterial activity against Salmonella enterica subsp. enterica serovar Typhi MTCC 733 assessed as growth inhibition at 3.12 to 50 ug/mL after 24 hr by agar disk diffusion method
Shigella flexneri [10] = assay: Antibacterial activity against Shigella flexneri MTCC 1457 assessed as growth inhibition after 24 hr by agar streak dilution method; settings: MTCC 1457, 24 h
Pseudomonas aeruginosa [11] = assay: Antibacterial activity against Pseudomonas aeruginosa MTCC 741 assessed as growth inhibition at 3.12 to 50 ug/mL after 24 hr by agar disk diffusion method
Staphylococcus aureus [12] = assay: Antibacterial activity against Staphylococcus aureus MTCC 96 assessed as growth inhibition after 24 hr by agar streak dilution method; settings: MTCC 96, 24 h
Proteus vulgaris [13] = assay: Antibacterial activity against Proteus vulgaris MTCC 1771 assessed as growth inhibition after 24 hr by agar streak dilution method; settings: MTCC 1771, 24 h
Candida albicans [14] = assay: Antifungal activity against Candida albicans MTCC 183 assessed as growth inhibition after 48 hr by agar streak dilution method; settings: MTCC 183, 48 h
Pseudomonas aeruginosa [15] = assay: Antibacterial activity against Pseudomonas aeruginosa MTCC 741 assessed as growth inhibition after 24 hr by agar streak dilution method; settings: MTCC 741, 24 h
Aspergillus clavatus [16] = assay: Antifungal activity against Aspergillus clavatus MTCC 1323 assessed as growth inhibition at 3.12 to 50 ug/mL after 24 hr by agar disk diffusion method
Aspergillus fumigatus [17] = assay: Antifungal activity against Aspergillus fumigatus MTCC 343 assessed as growth inhibition at 3.12 to 50 ug/mL after 24 hr by agar disk diffusion method
Escherichia coli [18] = assay: Antibacterial activity against Escherichia coli MTCC 739 assessed as growth inhibition after 24 hr by agar streak dilution method; settings: MTCC 739, 24 h
Aspergillus niger [19] = assay: Antifungal activity against Aspergillus niger MTCC 282 assessed as growth inhibition after 48 hr by agar streak dilution method; settings: MTCC 282, 48 h
Candida albicans [20] = assay: Antifungal activity against Candida albicans MTCC 183 assessed as growth inhibition at 3.12 to 50 ug/mL after 24 hr by agar disk diffusion method
Shigella flexneri [21] = assay: Antibacterial activity against Shigella flexneri MTCC 1457 assessed as growth inhibition at 3.12 to 50 ug/mL after 24 hr by agar disk diffusion method
Salmonella typhi [22] = assay: Antibacterial activity against Salmonella enterica subsp. enterica serovar Typhi MTCC 733 assessed as growth inhibition after 24 hr by agar streak dilution method; settings: MTCC 733, 24 h
Klebsiella pneumoniae [23] = assay: Antibacterial activity against Klebsiella pneumoniae MTCC 109 assessed as growth inhibition after 24 hr by agar streak dilution method; settings: MTCC 109, 24 h
[24] = test system: Mycobacterium tuberculosis; assay: Antimycobacterial activity against Mycobacterium tuberculosis H37Rv assessed as growth inhibition measured within 10 days by BACTEC MGIT method; settings: 240 h
Proteus vulgaris [25] = assay: Antibacterial activity against Proteus vulgaris MTCC 1771 assessed as growth inhibition at 3.12 to 50 ug/mL after 24 hr by agar disk diffusion method
Klebsiella pneumoniae [26] = assay: Antibacterial activity against Klebsiella pneumoniae MTCC 109 assessed as growth inhibition at 3.12 to 50 ug/mL after 24 hr by agar disk diffusion method
Aspergillus fumigatus [27] = assay: Antifungal activity against Aspergillus fumigatus MTCC 343 assessed as growth inhibition after 48 hr by agar streak dilution method; settings: MTCC 343, 48 h

`CC1CC(C)CN(c2nc(-c3ccc(NCC(=O)Nc4nc5ccc([N+](=O)[O-])cc5s4)cc3)nc(N3CC(C)CC(C)C3)n2)C1` (stereo not drawn) was tested, and the “inhibition zone (IZ)” value (Staphylococcus aureus [1]) was 22 mm, the MIC [2] was 50 µg/mL (≈ 79.4 µM) and the “inhibition zone (IZ)” value (Aspergillus niger [3]) was 23 mm. The MIC (Bacillus cereus [4]) was 12.5 µg/mL (≈ 19.8 µM), the MIC (Aspergillus clavatus [5]) was 25 µg/mL (≈ 39.7 µM) and the “inhibition zone (IZ)” value (Bacillus cereus [6]) was 26 mm. The “inhibition zone (IZ)” value (Escherichia coli [7]) was 18 mm, the “growth inhibition (GI)” value [8] was 98% and the “inhibition zone (IZ)” value (Salmonella typhi [9]) was 19 mm. For the same molecule, the MIC (Shigella flexneri [10]) was 50 µg/mL (≈ 79.4 µM), the “inhibition zone (IZ)” value (Pseudomonas aeruginosa [11]) was 18 mm and the MIC (Staphylococcus aureus [12]) was 12.5 µg/mL (≈ 19.8 µM). It also gave an MIC (Proteus vulgaris [13]) of 50 µg/mL (≈ 79.4 µM), an MIC (Candida albicans [14]) of 50 µg/mL (≈ 79.4 µM) and an MIC (Pseudomonas aeruginosa [15]) of 50 µg/mL (≈ 79.4 µM). For the same molecule, the “inhibition zone (IZ)” value (Aspergillus clavatus [16]) was 28 mm, the “inhibition zone (IZ)” value (Aspergillus fumigatus [17]) was 22 mm and the MIC (Escherichia coli [18]) was 50 µg/mL (≈ 79.4 µM). For the same molecule, the MIC (Aspergillus niger [19]) was 12.5 µg/mL (≈ 19.8 µM), the “inhibition zone (IZ)” value (Candida albicans [20]) was 16 mm and the “inhibition zone (IZ)” value (Shigella flexneri [21]) was 21 mm. For the same molecule, the MIC (Salmonella typhi [22]) was 50 µg/mL (≈ 79.4 µM), the MIC (Klebsiella pneumoniae [23]) was 50 µg/mL (≈ 79.4 µM) and the MIC [24] was greater than 6.25 µg/mL. For the same molecule, the “inhibition zone (IZ)” value (Proteus vulgaris [25]) was 19 mm, the “inhibition zone (IZ)” value (Klebsiella pneumoniae [26]) was 18 mm and the MIC (Aspergillus fumigatus [27]) was 50 µg/mL (≈ 79.4 µM).
For `CC1CC(C)CN(c2nc(-c3ccc(NCC(=O)Nc4nc5ccc(C#N)cc5s4)cc3)nc(N3CC(C)CC(C)C3)n2)C1` (stereo not drawn), the “inhibition zone (IZ)” value (Staphylococcus aureus [1]) was 24 mm, the MIC [2] was 100 µg/mL (≈ 164 µM) and the “inhibition zone (IZ)” value (Aspergillus niger [3]) was 19 mm. The MIC (Bacillus cereus [4]) was 50 µg/mL (≈ 82 µM), the MIC (Aspergillus clavatus [5]) was 50 µg/mL (≈ 82 µM) and the “inhibition zone (IZ)” value (Bacillus cereus [6]) was 22 mm. The “inhibition zone (IZ)” value (Escherichia coli [7]) was 25 mm, the “growth inhibition (GI)” value [8] was 95% and the “inhibition zone (IZ)” value (Salmonella typhi [9]) was 18 mm. For the same molecule, the MIC (Shigella flexneri [10]) was 50 µg/mL (≈ 82 µM), the “inhibition zone (IZ)” value (Pseudomonas aeruginosa [11]) was 18 mm and the MIC (Staphylococcus aureus [12]) was 6.25 µg/mL (≈ 10.2 µM). It also gave an MIC (Proteus vulgaris [13]) of 25 µg/mL (≈ 41 µM), an MIC (Candida albicans [14]) greater than 50 µg/mL and an MIC (Pseudomonas aeruginosa [15]) of 50 µg/mL (≈ 82 µM). The “inhibition zone (IZ)” value (Aspergillus clavatus [16]) was 16 mm, the “inhibition zone (IZ)” value (Aspergillus fumigatus [17]) was 22 mm and the MIC (Escherichia coli [18]) was 6.25 µg/mL (≈ 10.2 µM). The MIC (Aspergillus niger [19]) was 25 µg/mL (≈ 41 µM), the “inhibition zone (IZ)” value (Candida albicans [20]) was less than 10 mm and the “inhibition zone (IZ)” value (Shigella flexneri [21]) was 22 mm. For the same molecule, the MIC (Salmonella typhi [22]) was 50 µg/mL (≈ 82 µM), the MIC (Klebsiella pneumoniae [23]) was 25 µg/mL (≈ 41 µM) and the MIC [24] was greater than 6.25 µg/mL. For the same molecule, the “inhibition zone (IZ)” value (Proteus vulgaris [25]) was 22 mm, the “inhibition zone (IZ)” value (Klebsiella pneumoniae [26]) was 27 mm and the MIC (Aspergillus fumigatus [27]) was 50 µg/mL (≈ 82 µM).
In the case of `Cc1ccc2nc(NC(=O)CNc3ccc(-c4nc(N5CC(C)CC(C)C5)nc(N5CC(C)CC(C)C5)n4)cc3)sc2c1` (stereo not drawn), the “inhibition zone (IZ)” value (Staphylococcus aureus [1]) is reported as 15 mm, the MIC [2] is reported as 250 µg/mL (≈ 417 µM) and the “inhibition zone (IZ)” value (Aspergillus niger [3]) is reported as less than 10 mm. The MIC (Bacillus cereus [4]) was 50 µg/mL (≈ 83.5 µM), the MIC (Aspergillus clavatus [5]) was greater than 50 µg/mL and the “inhibition zone (IZ)” value (Bacillus cereus [6]) was 19 mm. For the same molecule, the “inhibition zone (IZ)” value (Escherichia coli [7]) was 16 mm, the “growth inhibition (GI)” value [8] was 97% and the “inhibition zone (IZ)” value (Salmonella typhi [9]) was less than 10 mm. For the same molecule, the MIC (Shigella flexneri [10]) was 50 µg/mL (≈ 83.5 µM), the “inhibition zone (IZ)” value (Pseudomonas aeruginosa [11]) was 15 mm and the MIC (Staphylococcus aureus [12]) was 50 µg/mL (≈ 83.5 µM). The MIC (Proteus vulgaris [13]) was 50 µg/mL (≈ 83.5 µM), the MIC (Candida albicans [14]) was 50 µg/mL (≈ 83.5 µM) and the MIC (Pseudomonas aeruginosa [15]) was 50 µg/mL (≈ 83.5 µM). For the same molecule, the “inhibition zone (IZ)” value (Aspergillus clavatus [16]) was less than 10 mm, the “inhibition zone (IZ)” value (Aspergillus fumigatus [17]) was less than 10 mm and the MIC (Escherichia coli [18]) was 50 µg/mL (≈ 83.5 µM). The MIC (Aspergillus niger [19]) was 50 µg/mL (≈ 83.5 µM), the “inhibition zone (IZ)” value (Candida albicans [20]) was 13 mm and the “inhibition zone (IZ)” value (Shigella flexneri [21]) was 12 mm. For the same molecule, the MIC (Salmonella typhi [22]) was 50 µg/mL (≈ 83.5 µM), the MIC (Klebsiella pneumoniae [23]) was 50 µg/mL (≈ 83.5 µM) and the MIC [24] was greater than 6.25 µg/mL. The “inhibition zone (IZ)” value (Proteus vulgaris [25]) was 20 mm, the “inhibition zone (IZ)” value (Klebsiella pneumoniae [26]) was 16 mm and the MIC (Aspergillus fumigatus [27]) was greater than 50 µg/mL.
With `COc1ccc2nc(NC(=O)CNc3ccc(-c4nc(N5CC(C)CC(C)C5)nc(N5CC(C)CC(C)C5)n4)cc3)sc2c1` (stereo not drawn) the “inhibition zone (IZ)” value (Staphylococcus aureus [1]) was 26 mm, the MIC [2] was 12.5 µg/mL (≈ 20.3 µM) and the “inhibition zone (IZ)” value (Aspergillus niger [3]) was 19 mm. The MIC (Bacillus cereus [4]) was 12.5 µg/mL (≈ 20.3 µM), the MIC (Aspergillus clavatus [5]) was 50 µg/mL (≈ 81.3 µM) and the “inhibition zone (IZ)” value (Bacillus cereus [6]) was 25 mm. The “inhibition zone (IZ)” value (Escherichia coli [7]) was 20 mm, the “growth inhibition (GI)” value [8] was 98% and the “inhibition zone (IZ)” value (Salmonella typhi [9]) was 20 mm. The MIC (Shigella flexneri [10]) was 12.5 µg/mL (≈ 20.3 µM), the “inhibition zone (IZ)” value (Pseudomonas aeruginosa [11]) was 20 mm and the MIC (Staphylococcus aureus [12]) was 1.56 µg/mL (≈ 2.54 µM). The MIC (Proteus vulgaris [13]) was 6.25 µg/mL (≈ 10.2 µM), the MIC (Candida albicans [14]) was 12.5 µg/mL (≈ 20.3 µM) and the MIC (Pseudomonas aeruginosa [15]) was 50 µg/mL (≈ 81.3 µM). The “inhibition zone (IZ)” value (Aspergillus clavatus [16]) was 23 mm, the “inhibition zone (IZ)” value (Aspergillus fumigatus [17]) was less than 10 mm and the MIC (Escherichia coli [18]) was 25 µg/mL (≈ 40.7 µM). The MIC (Aspergillus niger [19]) was 25 µg/mL (≈ 40.7 µM), the “inhibition zone (IZ)” value (Candida albicans [20]) was 25 mm and the “inhibition zone (IZ)” value (Shigella flexneri [21]) was 25 mm. The MIC (Salmonella typhi [22]) was 50 µg/mL (≈ 81.3 µM), the MIC (Klebsiella pneumoniae [23]) was 50 µg/mL (≈ 81.3 µM) and the MIC [24] was greater than 6.25 µg/mL. For the same molecule, the “inhibition zone (IZ)” value (Proteus vulgaris [25]) was 27 mm, the “inhibition zone (IZ)” value (Klebsiella pneumoniae [26]) was 23 mm and the MIC (Aspergillus fumigatus [27]) was greater than 50 µg/mL.
